Data: article PMC7866587, “Cell cycle arrest and apoptosis induction by Juniperus communis extract in esophageal squamous cell carcinoma through activation of p53‐induced apoptosis pathway” (Food Science & Nutrition, 2020)
In brackets after ≈: the same amount, converted by molar mass.

Assays:
[1] = system: SVEC cells; experiment: MTT cell viability assay (normal cells); format: cell-based; details: Mus musculus, mean ± SD
Experimental: (§1) CE81T/VGH (human esophageal squamous cell carcinoma), CE48T/VGH (human esophageal epidermoid carcinoma (VGH), SVEC (mouse vascular endothelial cell) and MDCK (cannis kidney epithelial cells) were purchased from the Food Industry Research and Development Institute. CE81T/VGH, CE48T/VGH, SVEC, and MDCK were cultured in Dulbecco's Modified Eagle Medium supplemented with 10% fetal bovine serum (Gibco BRL), 10 mM HEPES (Gibco), 1 mM pyruvate (Gibco), P/S (100 μg/ml penicillin, and 100 μg/ml streptomycin; Gibco), and non‐essential amino acids (Gibco, CE81T/VGH and CE48T/VGH only). Cells were grown in 10 cm^2 culture dishes in a humidified atmosphere with 5% CO2 at 37°C. The TP53 in the CE81T/VGH cells was mutated, which was detected using automated extraction of nucleic acids (AccuBioMed Co., Ltd.) and Femtopath Human Primer Sets (HongJing Biotech). JCo was purchased from the PHOENIX company and extracted using steam distillation. The clinical drug 5‐Fluorouracil (5‐FU; Sigma) was prepared in dimethyl sulfoxide (DMSO) in each in vitro experiment. Cells were treated with equivalent amounts of DMSO in the control and treatment groups, and the final concentration of DMSO in each experiment was 0.01%–0.5%.
(§2) The viability of CE81T/VGH, CE48T/VGH, MDCK, and SVEC cells was determined using a modified 3‐(4,5‐dimethylthiazol‐2‐yl)‐2,5‐diphenyltetrazolium bromide (MTT) assay. Cells were cultured in a 96‐well plate at a density of 5 × 10^3 cells/well for 24 hr and treated with different concentrations of JCo extract or 5‐FU for 24, 48, and 72 hr. MTT was dissolved in the base medium (400 μg/mL, Sigma), and 100 μl of solution was added into each well and incubated for 6–8 hr. The MTT formazan crystals were dissolved in 50 μL DMSO and the optical density (O.D.) was detected using a microplate reader (Molecular Devices, Spec384) at 550 nm. Cell viability was calculated as the O.D. percentage relative to the controls. The half‐maximal inhibitory concentration (IC50) value of JCo extract was measured from the cell viability assay.

[2] = system: CE48T/VGH cells; experiment: MTT cell viability assay; format: cell-based, human; details: mean ± SD; for IC50: Homo sapiens
Experimental: as §1, §2

[3] = system: CE81T/VGH cells; experiment: MTT cell viability assay; format: cell-based, human; details: for IC50: Homo sapiens, CE81T/VGH, mean ± SD
Experimental: as §1, §2

[4] = system: MDCK cells; experiment: MTT cell viability assay (normal cells); format: cell-based, cannis; details: Canis lupus familiaris, mean ± SD
Experimental: as §1, §2

Structure (SMILES): O=c1[nH]cc(F)c(=O)[nH]1 [5‐FU, 5‐fluorouracil]
- IC50 ([1]; 24 hr): 3.53 ± 0.29 µg/mL (≈ 27.1 µM)
- IC50 ([1]; 48 hr): < 0.63 µg/mL
- IC50 ([1]; 72 hr): < 0.63 µg/mL
- IC50 (cell viability) ([2]; 48 hr): 5.64 ± 0.34 µg/mL (≈ 43.4 µM)
- IC50 ([2]; 24 hr): 16 ± 0.03 µg/mL (≈ 123 µM)
- IC50 ([2]; 72 hr): 3.73 ± 0.06 µg/mL (≈ 28.7 µM)
- IC50 ([3]; 24 hr): > 20 µg/mL
- IC50 ([3]; 48 hr): 15.3 ± 6.74 µg/mL (≈ 118 µM)
- IC50 ([3]; 72 hr): 1.62 ± 0.04 µg/mL (≈ 12.5 µM)
- selection for ESCC versus normal cells (from IC50 values) ([3]; after 48 and 72 hr): lower
- selection between ESCC and normal cells (from IC50 values) ([3]; after 24 hr): no obvious selection
- IC50 ([4]; 24 hr): > 20 µg/mL
- IC50 ([4]; 48 hr): < 0.63 µg/mL
- IC50 ([4]; 72 hr): < 0.63 µg/mL
